Measured values from patent US11618738B2, “Compound and application thereof in treating inflammation or inflammation-related diseases” (SICHUAN CENTER FOR TRANSLATIONAL MEDICINE OF TRADITIONAL …, priority 2017, dated 2023).
pIC50: −log10 of the molar value. Read-outs that look alike come from different tables or passages of the source.

Tests used:
NO induced by LPS = test: Inhibition of LPS-induced NO in RAW 264.7 cells (Greiss reagent); format: cell-based, mice; details: for pIC50 / IC50: Mus musculus, RAW264.7; for pIC50: same method as Table 1, given as 10-50 μM, or <10 μM, read-out: IC50 of NO; for IC50: RAW 264.7 cells, LPS 100 ng/mL, overnight
Description: Nitric oxide (NO) is a signaling molecule that plays a key role in the pathogenesis of inflammation. Under abnormal conditions, NO is a pro-inflammatory mediator that causes inflammation due to its overproduction. Therefore, the regulation of elevated NO levels by stimulants (such as LPS) has been widely used as a screening method to identify anti-inflammatory drugs. Since NO is oxidized into nitrite and nitrate, the determination of total NO2^−/NO3^− is a conventional method for determining NO levels, and Griess reagent is usually used in this type of experiment.
(§1) This example is taken from a previous publication by Song et al.^[1]. In brief, mice RAW 264.7 cells were treated with increasing doses of each test compound at 37° C. for 1 hour. Thereafter, the cells were attacked with 20 μL/well of LPS (equivalent to a final concentration of 100 ng/mL). The cells were further incubated overnight at 37° C. A commercial ELISA assay kit obtained from R&D Systems (Minneapolis, Minn.) was used to determine the level of PGE2 in the supernatant, and three parallel experiments were performed. The optical density of each well was measured using a BioTek Epoch microplate reader (Winooski, Vt.) set to 450 nm. The NO study was performed in a similar manner, but Greiss reagent was used to monitor the level of NO, and the results were read at 550 nm.

PGE2 induced by LPS = test: Inhibition of LPS-induced PGE2 in RAW 264.7 cells (ELISA); format: cell-based, mice; details: for PGE2 inhibition rate (in words): same experimental method as Table 1; for PGE2 inhibition (%): RAW 264.7 cells, LPS 100 ng/mL, overnight, test concentration not given
Method: as §1

[1] = test system: acute gouty arthritis in rats induced by sodium urate crystals; test: Foot swelling in rats with acute gouty arthritis induced by sodium urate crystals; format: in vivo; details: for Foot swelling: 16.67 mg/kg once a day, mean ± SD
Method: Injecting sodium urate crystals into the joint cavity to establish an acute gouty arthritis model. Its pathological and clinical manifestations are very similar. It is a classic method commonly used in animal experiments to study gouty arthritis. This experiment will explore the effects of UTLOH series drugs on animals with acute gouty arthritis induced by sodium urate.
SPF grade SD rats, half female and half male (200-220 g/mouse), were randomly grouped by weight. The drug was administered once a day, for 3 consecutive days. […] Rats in the normal group were injected with an equal volume of sterile saline to the back of the right ankle joint. The administration was continued after modeling, once a day for 3 consecutive days. The ankle joint and foot volume of the rats in each group were measured respectively before modeling and 2 h, 4 h, 8 h, 24 h and 48 h after modeling.

[2] = test system: 10% egg white-induced foot swelling in rats; test: 10% egg white-induced foot swelling in rats; format: in vivo; details: for Foot swelling: 6.67 mg/kg gavage once a day for 3 days, mean ± SD
Description: Injecting 10% egg white into rat paws can cause early acute inflammation such as redness, heat, swelling, and pain in rat paws. In this experiment, the anti-inflammatory effects of UTLOH series compounds were observed by the degree of swelling of the paws of rats after inflammation.
SPF grade SD rats, half female and half male (100-120 g/mouse) were randomly grouped according to body weight. Each group was given the corresponding drugs by gavage, once a day, for 3 consecutive days, with a gavage volume of 1 ml/100 g. Before the experiment, the ankle joint of the right hind foot of each group of rats was marked, and the foot volume of each group of rats was measured twice with a rat foot volume meter, and the average of the two times was taken as the […]. 30 minutes after the last administration, the rats in each group were given a subcutaneous needle in the right hind paw, and injected with 10% fresh egg white solution 0.1 ml/mouse to cause inflammation, establishing a rat model of paw swelling. The post-inflamed foot volume in mice was measured twice at 1 h, 2 h, 3 h, and 4 h after inflammation, and the average of the two times was taken as the post-inflamed foot volume. The normal group was given 1 ml/100 g volume of 0.5% CMC-Na solution by gavage according to body weight.

[3] = read-out: NO IC50 (μM), value in brackets

| pIC50 (NO induced by LPS) | IC50 (NO induced by LPS; read-out: NO IC50 (μM), class) | IC50 (NO induced by LPS; [3]) | SMILES | PGE2 inhibition rate (in words) (PGE2 induced by LPS) | PGE2 inhibition (%) (PGE2 induced by LPS) | further results |
| --- | --- | --- | --- | --- | --- | --- |
| ≥ 4.30 |  |  | Cc1cc(C(=O)Nc2cc(O)ccc2O)no1 [UTLOH-4f] | very good |  |  |
|  | < 10 µM | 7.7 µM | Cc1cc(C(=O)Nc2cccc(O)c2)no1 [UTLOH-4b] |  | 64.0% |  |
|  |  |  | COc1cc2c(c(OC)c1OC)-c1ccc(OC)c(=O)cc1[C@@H](NC(C)=O)CC2 [Colchicine, reference compound] |  |  | Foot swelling ([1]; 2 h after modeling): 0.16 ± 0.12 mL; Foot swelling ([1]; 4 h after modeling): 0.21 ± 0.10 mL; Foot swelling ([1]; 8 h after modeling): 0.19 ± 0.10 mL; Foot swelling ([1]; 24 h after modeling): 0.20 ± 0.10 mL; Foot swelling ([1]; 48 h after modeling): 0.07 ± 0.09 mL; degree of foot swelling versus model group (in words) ([1]; gavage, at each time point): significantly lower |
| ≥ 4.30 |  |  | Cc1cc(C(=O)Nc2c(O)cc(O)cc2O)no1 [UTLOH-4k] | very good |  |  |
| ≥ 4.30 |  |  | Cc1cc(C(=O)Nc2ccc(O)c(O)c2)no1 [UTLOH-4h] | very good |  |  |
|  | < 10 µM | 6.3 µM | Cc1cc(C(=O)Nc2ccc(O)cc2)no1 [UTLOH-4c] |  | 73.1% | inhibition of LPS-induced NO compared with leflunomide and teriflunomide (in words) (NO induced by LPS; compared with leflunomide and teriflunomide): more strongly; inhibition on PGE2 compared to leflunomide (in words) (PGE2 induced by LPS; compared to leflunomide): stronger |
| ≥ 4.30 |  |  | Cc1cc(C(=O)Nc2cc(O)cc(O)c2)no1 [UTLOH-4i] | very good |  |  |
|  | > 250 µM | 298 µM | Cc1oncc1C(=O)Nc1ccc(C(F)(F)F)cc1 [Leflunomide, reference compound] |  | 54.0% | Foot swelling ([2]; 1 h after inflammation): 0.63 ± 0.14 mL; Foot swelling ([2]; 2 h after inflammation): 0.62 ± 0.15 mL; Foot swelling ([2]; 3 h after inflammation): 0.54 ± 0.14 mL; Foot swelling ([2]; 4 h after inflammation): 0.43 ± 0.11 mL; degree of foot swelling compared with the normal group (in words) ([2]; at 1 h and 2 h): significantly reduced |
| ≥ 4.30 |  |  | Cc1cc(C(=O)Nc2cccc(O)c2O)no1 [UTLOH-4d] | very good |  |  |
| ≥ 4.30 |  |  | Cc1cc(C(=O)Nc2c(O)cccc2O)no1 [UTLOH-4g] | very good |  |  |
|  | 150 to 250 µM | 175 µM | C/C(O)=C(\C#N)C(=O)Nc1ccc(C(F)(F)F)cc1 [Teriflunomide, reference compound] |  | 70.2% |  |
